The assay has as its target T1, Ara1 (Saccharomyces cerevisiae, UniProt P38115).
T1 construct: Ni-NTA and Superdex 200; tag cleavage not mentioned; homodimer
The assay can be described thus: X-ray crystallography of co-crystal, […] A. The following applies: co-crystallised with 5 mM NADPH, pH 6.5, 0.05 M CaCl2, 289 K; cofactor-binding site.

Turning to `NC(=O)C1=CN([C@@H]2O[C@H](COP(=O)(O)OP(=O)(O)OC[C@H]3O[C@@H](n4cnc5c(N)ncnc54)[C@H](OP(=O)(O)O)[C@@H]3O)[C@@H](O)[C@H]2O)C=CC1` [NADPH], the “X-ray crystallography of co-crystal, 2.00 A” value was “The structure of the Ara1–NADPH complex showed that a molecule of NADPH binds”.
